How the values were obtained:
[1] = Photochromic properties of photochromic laminate (plastic lens) prepared by coating method; format: physicochemical; details: 40 µm photochromic layer on thiourethane lens, 0.25 mmol compound per 100 g monomers, after color development
Description: (§1) First, the photochromic compound obtained in Example 1, a photoinitiator, and a polymerizable compound were mixed to obtain a curable composition.
(§2) Polyethylene glycol dimethacrylate (average molecular weight: 736): 42 parts by mass • Polyethylene glycol dimethacrylate (average molecular weight: 536): 12 parts by mass • Trimethylolpropane trimethacrylate: 38 parts by mass γ-methacryloyloxypropyl trimethoxysilane: 2 parts by mass Glycidyl methacrylate: 1 part by mass
(§3) Note that the photochromic compound was added to the curable composition so that the amount of the photochromic compound was 0.25 mmol based on 100 g of the total amount of the radical-polymerizable monomers.
(§4) Phenylbis(2,4,6-trimethylbenzoyl)phosphine oxide (photoinitiator: Omnirad 819): 0.3 parts by mass Ethylene bis(oxyethylene) bis[3-(5-tert-butyl-4-hydroxy-m-tolyl)propionate] (stabilizer, Irganox 245): 1 part by mass Bis(1,2,2,6,6-pentamethyl-4-piperidyl) sebacate: 3 parts by mass Leveling agent (L7001) manufactured by Dow Corning Toray Co.,Ltd.: 0.1 part by mass
(§5) First, a thiourethane-based plastic lens having a central thickness of 2 mm and a refractive index of 1.60 was prepared as the optical substrate. Note that this thiourethane-based plastic lens was pre-treated by alkaline etching with a 10% sodium hydroxide aqueous solution at 50°C for 5 minutes, followed by sufficient washing with distilled water.
(§6) A surface of the above-described plastic lens was coated with a moisture-curable primer (product name: TR-SC-P, manufactured by Tokuyama Corporation) at a rotation frequency of 70 rpm for 15 seconds, followed by 1000 rpm for 10 seconds, using a spin coater (1H-DX2, manufactured by MIKASA CO., LTD), Subsequently, about 2 g of the photochromic curable composition obtained above was spin-coated at a rotation frequency of 60 rpm for 40 seconds, followed by 600 rpm for 10 to 20 seconds, to form a photochromic coating layer with a film thickness of 40 µm.
(§7) The lens with the surface coated with the photochromic curable composition (photochromic coating layer) was irradiated with light using a metal halide lamp with an output power of 200 mW/cm^2 in a nitrogen gas atmosphere for 90 seconds to cure the coating film. Subsequently, the lens was further heated at 110°C for 1 hour to prepare a photochromic laminate having a photochromic layer.
In the same manner as in Example 26, photochromic laminates were prepared using the photochromic compounds obtained in Examples 2 to 25.
(§8) • [1] Maximum Absorption Wavelength (λmax): The maximum absorption wavelength after color development, measured using a spectrophotometer (instantaneous multichannel photodetector MCPD3000) manufactured by Otsuka Electronics Co., Ltd. was used as an indicator for the color tone during the color development. • [2] 23°C Color Optical Density (A23): A difference between an absorbancy measured after light irradiation at 23°C for 300 seconds {ε(300)} and an absorbancy without light irradiation ε(0) at the maximum absorption wavelength was used as an indicator for the color optical density. […] 23°C color fading half-life [τ1/2 (sec.)]: A time required for the absorbancy of the sample at the maximum absorption wavelength to decrease to 1/2 of {ε(300)-ε(0)} when the light irradiation was terminated after the light irradiation at 23°C for 300 seconds, was used as an indicator for the color fading speed. The shorter this time, the higher the color fading speed. • [4] Residual rate (A120/A0×100): The obtained photochromic plastic lens was subjected to accelerated deterioration using a xenon weather meter X25 manufactured by Suga Test Instruments Co., Ltd. for 120 hours. Subsequently, the color optical density was evaluated before and after the test, then a color optical density before the test (A0) and a color optical density after the test (A120) were measured, and a ratio (A120/A0) was defined as a residual rate. The residual rate was used as an indicator for a color developing durability. […]

[2] = Accelerated deterioration (xenon weather meter X25, 120 hours) of photochromic laminate prepared by coating method; format: physicochemical; details: 0.25 mmol per 100 g monomers, A120/A0×100 after 120 hours xenon weather meter
Description: as §1, §2, §3, §4, §5, §6, §7
as §8, with “durability. The higher the residual rate, the higher the color developing durability.” for “durability.”

| Structure (SMILES) | Maximum absorption wavelength [1] [nm] | Residual rate [2] [%] | other results |
| --- | --- | --- | --- |
| CCCCCCC1(CCCCCC)c2ccccc2-c2c1c1c(c3cc(OC)ccc23)OC(c2ccc(F)cc2)(c2ccc(N(CC)c3ccccc3)cc2)C=C1 (centres unmarked) [Example 4] | 489 | 57 | Maximum absorption wavelength ([1]; listed as Formula (48)): 601 nm |
| COc1ccc(C2(c3ccc(N(c4ccccc4)C4CCCCC4)cc3)C=Cc3c4c(c5cc(OC)c(OC)cc5c3O2)-c2ccccc2C4(CCCCF)CCCCF)cc1 (centres unmarked) [Example 6] | 481 | 70 | Maximum absorption wavelength ([1]; listed as Formula (53)): 593 nm; Residual rate ([2]; listed as Formula (53)): 63% |
| CCCOc1ccc(C2(c3ccc(N(CC(F)(F)F)c4ccccc4)cc3)C=Cc3c4c(c5ccccc5c3O2)-c2ccccc2C42CCCCCCC2)cc1 (centres unmarked) [Example 9] | 578 | 62 | – |
| COc1cc2c3c(c4c(c2cc1OC)-c1ccc(-c2ccc(C(F)(F)F)cc2)cc1C4(CCCC(F)(F)F)CCCC(F)(F)F)C=CC(c1ccc(Oc2ccccc2)cc1)(c1ccc(N(C)c2ccccc2)cc1)O3 (centres unmarked) [Example 13] | 489 | 65 | Maximum absorption wavelength ([1]; listed as Formula (69)): 605 nm; Residual rate ([2]; listed as Formula (69)): 60% |
| CCCCC1(CCCC)c2cc([Si](C)(c3ccccc3)c3ccccc3)ccc2-c2c1c1c(c3cc(OC)c(C)cc23)OC(c2ccc(C)cc2)(c2ccc(N(C)c3ccccc3)cc2)C=C1 (centres unmarked) [Example 15] | 487 | 58 | Maximum absorption wavelength ([1]; listed as Formula (75)): 602 nm |
| CCCc1ccc(C2(c3ccc(N(C)c4ccccc4)cc3)C=Cc3c4c(c5cc(-c6ccc(C)cc6)c(C)cc5c3O2)-c2ccccc2C4(CCOC)CCOC)cc1 (centres unmarked) [Example 18] | 587 | 60 | – |
| COCCCC1(CCCOC)c2cc(-c3ccc(C(C)(C)C)cc3)ccc2-c2c1c1c(c3cc(OC)c(OC)cc23)OC(c2ccc(N(CCOC)c3ccccc3)cc2)(c2ccc3c(c2)OCCO3)C=C1 (centres unmarked) [Example 20] | 486 | 67 | Maximum absorption wavelength ([1]; listed as Formula (81)): 608 nm; Residual rate ([2]; listed as Formula (81)): 63% |
| CCCC1(CCC)c2ccccc2-c2c1c1c(c3cc(OC)c(N(c4ccccc4)c4ccccc4)cc23)OC(c2ccc(C)cc2)(c2ccc(N(C)c3ccccc3)cc2)C=C1 (centres unmarked) [Example 22] | 530 | 68 | – |
| COCCCCC1(CCCCOC)c2cc(-c3ccccc3)ccc2-c2c1c1c(c3cc(OC)c(N4CCS(=O)(=O)CC4)cc23)OC(c2ccc(OCCOCCOC)cc2)(c2ccc(N(C)c3ccccc3)cc2)C=C1 (centres unmarked) [Example 58] | 498 | 60 | Maximum absorption wavelength ([1]; listed as Formula (114)): 617 nm |

Continued, in another order:

| Maximum absorption wavelength [1] [nm] | Residual rate [2] [%] | Structure (SMILES) | other results |
| --- | --- | --- | --- |
| 478 | 65 | COc1ccc(C2(c3ccc(N(C)c4ccccc4)cc3)C=Cc3c4c(c5cc(-c6c(OC)cc(OC)cc6OC)c(OC)cc5c3O2)-c2ccc(C)cc2C4(CCCSC)CCCSC)cc1 (centres unmarked) [Example 12] | Maximum absorption wavelength ([1]; listed as Formula (66)): 614 nm |
| 484 | 56 | CCCOc1ccc(C2(c3ccc(N(CC(F)(F)F)c4ccccc4)cc3)C=Cc3c4c(c5cc(-c6ccc(OC)cc6)c(C)cc5c3O2)-c2ccc(C)cc2C4(CC)CC)cc1 (centres unmarked) [Example 17] | Maximum absorption wavelength ([1]; listed as Formula (78)): 592 nm |
| 488 | 58 | COc1ccc(C2(c3ccc(N(C)c4ccccc4)cc3)C=Cc3c4c(c5cc6c(cc5c3O2)SC(C)(C)S6)-c2ccc(-c3ccc(F)c(F)c3F)cc2C42CCCCCCCCCCC2)cc1 (centres unmarked) [Example 52] | Maximum absorption wavelength ([1]; listed as Formula (93)): 604 nm; Residual rate ([2]; listed as Formula (93)): 56% |
| 501 | 67 | COc1ccc(C2(c3ccc(N(C)c4ccccc4)cc3)C=Cc3c4c(c5cc(-c6ccc(N7CCSCC7)cc6)c(OC)cc5c3O2)-c2ccc(OC)cc2C4(CCC(F)(F)F)CCC(F)(F)F)cc1 (centres unmarked) [Example 54] | Maximum absorption wavelength ([1]; listed as Formula (96)): 628 nm |
| 487 | 59 | CCCc1ccc(C2(c3ccc(N(C)c4ccccc4)cc3)C=Cc3c4c(c5cc(OC)ccc5c3O2)-c2ccccc2C42CCCCCCC2)cc1 (centres unmarked) [Example 61] | Maximum absorption wavelength ([1]; listed as Formula (122)): 564 nm; Residual rate ([2]; listed as Formula (122)): 57% |

— EP4692072A1, “PHOTOCHROMIC COMPOUND, PROPARGYL ALCOHOL COMPOUND, CURABLE COMPOSITION, OPTICAL ARTICLE, LENS, AND SPECTACLES” (TOKUYAMA CORPORATION, priority 2023, dated 2024)
